Laboratory results as given in PubChem BioAssay (NCI).
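48-hour exposure; five concentrations; linearly interpolated endpoints. TGI marks complete inhibition of growth.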

Tests used:
Assay in all cases: NCI-60 cell line screen, 48 h
[1] = system: U251 CNS
[2] = system: SNB-75 CNS
[3] = system: EKVX NSCLC
[4] = system: KM12 colon
[5] = system: BT-549 breast
[6] = system: SK-MEL-5 melanoma
[7] = system: COLO 205 colon
[8] = system: OVCAR-8 ovarian
[9] = system: K-562 leukemia
[10] = system: A498 renal

SMILES: CSc1c(C(=O)Nc2ccccc2)c(N)nn1-c1ccccc1
- TGI [1]: > 100 µM
- TGI [2]: > 100 µM
- TGI [3]: > 100 µM
- TGI [4]: > 100 µM
- TGI [5]: > 100 µM
- TGI [6]: > 100 µM
- TGI [7]: > 100 µM
- TGI [8]: > 100 µM
- TGI [9]: > 100 µM
- TGI [10]: > 100 µM

SMILES: N=C(N)SCCON1C(=O)c2ccccc2C1=O
- TGI [1]: > 100 µM
- TGI [2]: > 100 µM
- TGI [3]: > 100 µM
- TGI [4]: > 100 µM
- TGI [5]: > 100 µM
- TGI [6]: > 100 µM
- TGI [7]: > 100 µM
- TGI [8]: > 100 µM
- TGI [9]: > 100 µM
- TGI [10]: > 100 µM

SMILES: Cc1c(-c2c(C)c3ccccc3n2S(=O)(=O)c2ccccc2)n(S(=O)(=O)c2ccccc2)c2ccccc12
- TGI [1]: > 100 µM
- TGI [2]: > 31.6 µM
- TGI [3]: > 100 µM
- TGI [4]: > 100 µM
- TGI [5]: > 100 µM
- TGI [6]: > 94.1 µM
- TGI [7]: > 100 µM
- TGI [8]: > 100 µM
- TGI [9]: > 100 µM
- TGI [10]: > 100 µM

SMILES: CCOC(=O)/C(=C\NCC(O)c1ccccc1)c1nc2ccccc2[nH]1 (stereo unspecified)
- TGI [2]: 58.2 µM
- TGI [3]: 91.5 µM
- TGI [4]: 67.9 µM
- TGI [5]: 98.7 µM
- TGI [6]: 22.9 µM
- TGI [7]: 49.8 µM
- TGI [8]: 69.9 µM
- TGI [9]: 59.6 µM
- TGI [10]: 64.1 µM

SMILES: Cc1cnoc1NC1=CC(=O)C(=O)c2ccccc21
- TGI [1]: 13.9 µM
- TGI [2]: > 100 µM
- TGI [3]: > 100 µM
- TGI [4]: > 100 µM
- TGI [5]: > 100 µM
- TGI [6]: 12 µM
- TGI [7]: > 100 µM
- TGI [8]: > 100 µM
- TGI [9]: 10.9 µM
- TGI [10]: > 100 µM

SMILES: CC1(C)OC2OC(COC(=O)C=[N+]=[N-])C3OC(C)(C)OC3C2O1 (stereo unspecified)
- TGI [1]: > 100 µM
- TGI [3]: > 100 µM
- TGI [4]: > 100 µM
- TGI [5]: > 100 µM
- TGI [6]: > 100 µM
- TGI [7]: > 100 µM
- TGI [9]: > 100 µM
- TGI [10]: > 100 µM

SMILES: Cc1ccc2c(=O)cc(-c3csc4ccccc34)[nH]c2n1
- TGI [1]: 0.0783 µM
- TGI [2]: > 51.2 µM
- TGI [4]: 0.86 µM
- TGI [5]: 22.3 µM
- TGI [6]: 1.05 µM
- TGI [7]: 0.756 µM
- TGI [8]: 5.55 µM
- TGI [9]: > 39.7 µM
- TGI [10]: 1.1 µM

SMILES: CCN1CC(C)Cn2c(=O)[nH]c3cc(Br)cc1c32 (stereo unspecified)
- TGI [1]: > 100 µM
- TGI [2]: 48.3 µM
- TGI [3]: 52 µM
- TGI [4]: > 100 µM
- TGI [5]: 56.8 µM
- TGI [6]: > 100 µM
- TGI [7]: > 100 µM
- TGI [8]: > 100 µM
- TGI [9]: > 100 µM
- TGI [10]: 80.3 µM

SMILES: C=CC[C@H]1[C@@H](O[Si](C)(C)C(C)(C)C)[C@H](n2ccc(=O)[nH]c2=O)O[C@@H]1CO[Si](C)(C)C(C)(C)C
- TGI [1]: 4.44 µM
- TGI [2]: 3.97 µM
- TGI [3]: 4.83 µM
- TGI [4]: 3.49 µM
- TGI [5]: 7.67 µM
- TGI [6]: 3.18 µM
- TGI [7]: 3.4 µM
- TGI [8]: 3.93 µM
- TGI [9]: 6.1 µM
- TGI [10]: 7.83 µM

SMILES: Cn1c(=O)c2c(nc(NCCCCl)n2CC(=O)O)n(C)c1=O
- TGI [1]: > 100 µM
- TGI [2]: > 100 µM
- TGI [3]: > 100 µM
- TGI [4]: > 100 µM
- TGI [5]: > 100 µM
- TGI [6]: > 100 µM
- TGI [7]: > 100 µM
- TGI [8]: > 100 µM
- TGI [9]: > 100 µM
- TGI [10]: > 100 µM

SMILES: COc1cc2c(cc1C[N+](C)(C)CSc1ccccc1)-c1ccccc1CC2
- TGI [1]: 27.8 µM
- TGI [2]: 6.17 µM
- TGI [3]: 23.7 µM
- TGI [4]: 6.92 µM
- TGI [5]: 15.5 µM
- TGI [6]: 2.39 µM
- TGI [7]: 5.73 µM
- TGI [8]: 14.6 µM
- TGI [9]: 6.75 µM
- TGI [10]: 37.9 µM
